Columns and labels:
[1] = target: T1, Adrenergic receptor alpha-1 (Rattus norvegicus, UniProt P15823+P23944+P43140); experiment: Inhibitory activity against [3H]WB-4101 binding to Alpha-1 adrenergic receptor in rat whole brain membrane; assay type: cell membranes
T1 sequence (P15823 whole entry): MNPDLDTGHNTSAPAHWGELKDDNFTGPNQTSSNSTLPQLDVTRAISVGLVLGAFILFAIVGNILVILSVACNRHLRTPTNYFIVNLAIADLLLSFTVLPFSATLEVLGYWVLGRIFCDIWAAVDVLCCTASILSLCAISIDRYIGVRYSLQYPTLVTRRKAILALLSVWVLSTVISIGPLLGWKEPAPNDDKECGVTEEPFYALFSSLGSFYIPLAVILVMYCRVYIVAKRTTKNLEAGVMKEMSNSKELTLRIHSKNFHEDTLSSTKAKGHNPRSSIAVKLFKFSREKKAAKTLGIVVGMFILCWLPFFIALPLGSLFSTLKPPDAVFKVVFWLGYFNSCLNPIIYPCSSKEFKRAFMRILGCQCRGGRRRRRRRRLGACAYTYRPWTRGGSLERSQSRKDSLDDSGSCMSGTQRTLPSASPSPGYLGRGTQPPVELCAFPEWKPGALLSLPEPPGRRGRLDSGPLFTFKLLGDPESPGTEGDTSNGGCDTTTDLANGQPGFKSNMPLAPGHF
T1 sequence (P23944 whole entry): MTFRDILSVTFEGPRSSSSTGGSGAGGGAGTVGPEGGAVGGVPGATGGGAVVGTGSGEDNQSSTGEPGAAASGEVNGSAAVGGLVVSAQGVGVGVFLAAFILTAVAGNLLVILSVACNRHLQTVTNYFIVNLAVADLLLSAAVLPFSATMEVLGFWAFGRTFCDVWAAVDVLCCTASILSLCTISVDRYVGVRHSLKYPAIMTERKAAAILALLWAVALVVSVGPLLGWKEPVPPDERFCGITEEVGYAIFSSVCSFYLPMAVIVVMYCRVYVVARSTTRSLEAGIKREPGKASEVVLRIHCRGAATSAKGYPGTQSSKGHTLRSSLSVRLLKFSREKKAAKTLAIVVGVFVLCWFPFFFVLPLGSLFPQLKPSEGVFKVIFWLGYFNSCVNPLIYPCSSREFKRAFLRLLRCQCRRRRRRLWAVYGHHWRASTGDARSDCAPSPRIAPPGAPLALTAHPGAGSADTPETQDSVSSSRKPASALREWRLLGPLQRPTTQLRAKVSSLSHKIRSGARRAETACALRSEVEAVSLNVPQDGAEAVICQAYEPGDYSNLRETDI
T1 sequence (P43140 whole entry): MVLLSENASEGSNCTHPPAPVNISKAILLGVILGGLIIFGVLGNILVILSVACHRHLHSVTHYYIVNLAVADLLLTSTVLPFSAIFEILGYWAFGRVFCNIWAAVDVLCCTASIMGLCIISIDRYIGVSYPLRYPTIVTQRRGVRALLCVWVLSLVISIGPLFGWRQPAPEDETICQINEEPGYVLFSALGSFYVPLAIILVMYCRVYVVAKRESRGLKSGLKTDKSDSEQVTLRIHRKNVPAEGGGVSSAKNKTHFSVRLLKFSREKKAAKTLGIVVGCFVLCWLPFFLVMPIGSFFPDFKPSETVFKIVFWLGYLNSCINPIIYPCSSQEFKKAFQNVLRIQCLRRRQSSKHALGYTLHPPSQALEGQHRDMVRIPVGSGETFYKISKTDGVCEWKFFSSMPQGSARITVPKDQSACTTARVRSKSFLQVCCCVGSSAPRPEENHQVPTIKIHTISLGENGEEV

[2] = target: T2, Adrenergic receptor alpha-2 (Rattus norvegicus, UniProt P22086+P19328+P22909); experiment: Inhibitory activity against [3H]clonidine binding to Alpha-2 adrenergic receptor in rat cortex
T2 sequence (P22086 whole entry): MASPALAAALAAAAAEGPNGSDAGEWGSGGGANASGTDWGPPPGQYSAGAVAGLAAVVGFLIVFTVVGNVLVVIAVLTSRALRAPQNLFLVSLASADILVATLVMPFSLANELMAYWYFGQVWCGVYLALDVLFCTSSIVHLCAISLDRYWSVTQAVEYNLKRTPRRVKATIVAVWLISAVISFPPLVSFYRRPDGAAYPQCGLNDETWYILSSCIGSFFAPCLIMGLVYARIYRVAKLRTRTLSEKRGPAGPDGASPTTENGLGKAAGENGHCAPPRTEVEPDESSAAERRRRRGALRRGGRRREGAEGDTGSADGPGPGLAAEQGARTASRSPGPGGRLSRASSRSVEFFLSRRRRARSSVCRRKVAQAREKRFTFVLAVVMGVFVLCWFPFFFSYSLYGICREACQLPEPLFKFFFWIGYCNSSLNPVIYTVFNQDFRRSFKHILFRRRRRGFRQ
T2 sequence (P19328 whole entry): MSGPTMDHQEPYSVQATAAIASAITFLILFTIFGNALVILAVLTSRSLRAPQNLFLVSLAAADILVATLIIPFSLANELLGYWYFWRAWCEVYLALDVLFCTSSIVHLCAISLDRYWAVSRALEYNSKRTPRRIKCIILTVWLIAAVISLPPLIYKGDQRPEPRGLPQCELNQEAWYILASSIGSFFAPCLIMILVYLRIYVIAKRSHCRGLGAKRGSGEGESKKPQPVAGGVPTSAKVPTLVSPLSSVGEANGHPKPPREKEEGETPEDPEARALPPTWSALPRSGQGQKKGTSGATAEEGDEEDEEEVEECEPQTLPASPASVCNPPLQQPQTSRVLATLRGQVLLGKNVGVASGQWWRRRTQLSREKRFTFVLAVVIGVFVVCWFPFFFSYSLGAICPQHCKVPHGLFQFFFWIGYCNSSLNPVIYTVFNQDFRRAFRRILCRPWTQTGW
T2 sequence (P22909 whole entry): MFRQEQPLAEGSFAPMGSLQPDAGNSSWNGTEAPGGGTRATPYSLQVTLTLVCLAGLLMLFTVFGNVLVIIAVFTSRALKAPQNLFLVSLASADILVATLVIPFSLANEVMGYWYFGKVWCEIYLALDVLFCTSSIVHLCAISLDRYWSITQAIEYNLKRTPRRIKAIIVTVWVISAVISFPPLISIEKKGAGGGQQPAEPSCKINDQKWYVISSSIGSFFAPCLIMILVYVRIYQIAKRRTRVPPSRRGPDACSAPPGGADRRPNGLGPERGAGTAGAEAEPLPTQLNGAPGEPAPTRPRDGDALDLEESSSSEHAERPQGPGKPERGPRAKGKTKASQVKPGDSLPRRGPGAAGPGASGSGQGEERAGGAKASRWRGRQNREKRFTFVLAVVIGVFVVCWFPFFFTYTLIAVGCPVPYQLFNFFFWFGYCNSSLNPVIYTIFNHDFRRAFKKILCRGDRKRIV

Row | SMILES | IC50 [1] [nM] | IC50 [2] [nM]
1 | CN(c1ccncc1)n1ccc2ccccc21 | 1200 | 24
2 | c1ccc2c(c1)ccn2Nc1ccncc1 | 510 | 8
3 | CCCN(c1ccncc1)n1ccc2ccccc21 [BESIPIRDINE] | 10000 | 330

— ChEMBL document CHEMBL1129670, “Synthesis and structure-activity relationships of N-propyl-N-(4-pyridinyl)-1H-indol-1-amine (besipirdine) and related analogs as potential therapeutic agents for Alzheimer's disease” (J Med Chem, 1996)
